What was measured:
Assay in all cases: SILAC RP-ABPP
Type in all cases: cell-based
[1] = molecular target: T1, HMOX2 Heme oxygenase 2 (P30519) (Homo sapiens, UniProt P30519); conditions: SILAC H/L, HEK293T
T1 construct: In Situ Labelling of Cells with Hydrazine Probes for MS Experiments; endogenous in cells; host or cells: HEK293T and/or MDA-MB-231
Experimental: (§1) For MS-based experiments, labelling was performed in a similar manner as described above in Example 2, maintaining the same concentrations of probes. Modifications to this protocol included using isotopically ‘light’ and ‘heavy’ SILAC cells that were also grown to near complete confluence prior to treatment. Isotopically light cells were treated with the non-clickable hydrazine probe (at the same concentration as the probe in ‘enrichment’ experiments) or the probe in the presence of 10-fold excess non-clickable hydrazine probe as a competitor (in ‘competition’ experiments). Isotopically heavy cells were treated with the probe for both types of experiments. These treatments were performed in non-SILAC media. Following treatments, cells were washed with cold PBS to remove the probe-containing media, harvested by scraping, collected by centrifugation (1,400 g, 3 min, 4° C.), washed again by resuspension in cold PBS and frozen as pellets at −80° C. until use.
(§2) The fractionated equimolar mixture of heavy and light soluble proteomes (1-1.5 mg) was diluted to 1 mL in PBS. Click reactions were scaled accordingly (except for biotin-azide) to maintain final concentrations of 0.1 mM TBTA, 1 mM CuSO4, 100 μM biotin-azide (10 mM in DMSO) and 1 mM TCEP. The mixture was vortexed and placed on a rotator at ambient temperature for 1 hour. Sequential addition of and mixture with pre-chilled methanol (MeOH, 2 mL), chloroform (CHCl3, 0.5 mL) and PBS (1 mL) on ice quenched the reaction. The precipitated proteome was centrifuged (5,000 g, 10 min, 4° C.) to fractionate the protein interphase from the organic and aqueous solvent layers. The protein pellet was washed with cold 1:1 MeOH:CHCl3 (3×1 mL), mildly sonicated in cold 4:1 MeOH:CHCl3 (2.5 mL) and pelleted once more by centrifugation (5,000 g, 10 min, 4° C.) to ensure click reagents were efficiently removed.
(§3) Heavy and light parent ion chromatograms associated with successfully identified peptides were extracted and compared using CIMAGE software as previously described^69. At least one ion of a co-eluting heavy-light pair must be accurately identified from a fragmentation event that occurred within the retention time window (±10 min) of parent ion elution. To ensure that the correct pair of peaks is quantified, chromatograms are extracted within a 10 ppm error tolerance of the predicted m/z, the signal-to-noise ratio must be >2.5 and the ‘co-elution correlation score’ and ‘envelope correlation score’ must have R^2 values ≥0.8. In addition, peptides detected as ‘singletons,’ where only the heavy ion of a peptide pair was identified, but for which passed all other filtering parameters, are given a default assigned ratio of ‘20,’ which is defined as any measured ratio that is ≥20.
(§4) To further eliminate false positives and any stochastic variability in the data, protein ratios were then determined by the median peptide ratio derived from three or more unique quantified peptides. Protein ratios that complied with these criteria from a single experiment were then averaged with ratios acquired from ≥3 replicates to provide final values for each type of experiment in both cell lines with both probes. […] Most importantly, there are no robustly measured ratios for proteins identified as probe 1 targets that had measured ratios of ˜1 with probe 2. Probe targets in HEK293T and MDA-MB-231 cells represent data combined from ≥3 independent biological replicates with each cell type performed with several independent batches of synthesized probes over a period of almost two years.
(§5) Analogous experiments were also performed with the aryl hydrazine probe 2 (1 mM, 0.5 hour), which furnished a larger list of high-reactivity proteins (33 in total; Table 3) that contained several of the targets of probe 1 (compared in Table 4), as well as additional proteins that may reflect an expanded chemical reactivity for probe 2.

[2] = molecular target: T2, PRCP Lysosomal ProX carboxypeptidase (P42785) (Homo sapiens, UniProt P42785); conditions: SILAC H/L, MDA-MB-231
T2 construct: endogenous in cells; host or cells: HEK293T or MDA-MB-231
T2 sequence (P42785 46-496): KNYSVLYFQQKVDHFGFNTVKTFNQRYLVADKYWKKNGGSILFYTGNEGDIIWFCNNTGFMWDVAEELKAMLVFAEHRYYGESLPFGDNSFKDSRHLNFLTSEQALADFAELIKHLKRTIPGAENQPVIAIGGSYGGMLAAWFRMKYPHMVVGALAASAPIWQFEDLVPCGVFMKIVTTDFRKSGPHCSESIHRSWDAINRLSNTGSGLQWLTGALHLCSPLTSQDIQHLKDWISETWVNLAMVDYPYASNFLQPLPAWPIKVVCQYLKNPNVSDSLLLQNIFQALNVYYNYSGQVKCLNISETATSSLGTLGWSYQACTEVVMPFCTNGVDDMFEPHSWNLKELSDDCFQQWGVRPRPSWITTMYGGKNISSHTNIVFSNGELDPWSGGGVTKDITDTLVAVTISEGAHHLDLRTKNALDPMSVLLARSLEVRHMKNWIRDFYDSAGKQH
Experimental: as §1, §2, §3, §4, §5

[3] = molecular target: T3, ASAH1 Acid ceramidase (Q13510) (Homo sapiens, UniProt Q13510); conditions: SILAC H/L, MDA-MB-231
T3 construct: endogenous in cells; host or cells: HEK293T or MDA-MB-231
Experimental: as §1, §2, §3, §4, §5

[4] = molecular target: T4, ERAP1 Endoplasmic reticulum aminopeptidase (Q9NZ08) (Homo sapiens, UniProt Q9NZ08); conditions: SILAC H/L, MDA-MB-231
T4 construct: endogenous in cells; host or cells: HEK293T or MDA-MB-231
Experimental: as §1, §2, §3, §4, §5

[5] = molecular target: T5, MINA MYCinduced nuclear antigen (Q8IUF8) (Homo sapiens, UniProt Q8IUF8); conditions: SILAC H/L, HEK293T
T5 construct: In Situ Labelling of Cells with Hydrazine Probes for MS Experiments; endogenous in cells; host or cells: HEK293T and/or MDA-MB-231
T5 sequence (Q8IUF8 whole entry): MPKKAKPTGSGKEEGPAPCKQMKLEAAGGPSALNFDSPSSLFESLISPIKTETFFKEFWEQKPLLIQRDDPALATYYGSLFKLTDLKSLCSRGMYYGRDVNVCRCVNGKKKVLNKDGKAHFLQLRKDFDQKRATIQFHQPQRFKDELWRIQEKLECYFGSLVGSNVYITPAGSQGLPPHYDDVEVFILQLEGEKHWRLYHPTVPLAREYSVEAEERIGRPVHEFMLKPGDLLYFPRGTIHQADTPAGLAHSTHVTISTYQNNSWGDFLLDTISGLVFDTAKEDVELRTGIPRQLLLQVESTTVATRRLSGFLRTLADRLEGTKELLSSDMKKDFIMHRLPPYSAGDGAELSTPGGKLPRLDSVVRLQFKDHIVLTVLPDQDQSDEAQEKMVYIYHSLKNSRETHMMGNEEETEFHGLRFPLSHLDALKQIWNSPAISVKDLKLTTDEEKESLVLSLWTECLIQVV
Experimental: as §1, §2, §3, §4, §5

[6] = molecular target: T6, KDM1A Lysinespecific histone demethylase 1A (O60341) (Homo sapiens, UniProt O60341); conditions: SILAC H/L, HEK293T
T6 construct: In Situ Labelling of Cells with Hydrazine Probes for MS Experiments; endogenous in cells; host or cells: HEK293T and/or MDA-MB-231
Experimental: as §1, §2, §3, §4, §5

[7] = molecular target: T7, CYP51A1 Lanosterol 14alpha demethylase (Q16850) (Homo sapiens, UniProt Q16850); conditions: SILAC H/L, HEK293T
T7 construct: In Situ Labelling of Cells with Hydrazine Probes for MS Experiments; endogenous in cells; host or cells: HEK293T and/or MDA-MB-231
T7 sequence (Q16850 whole entry): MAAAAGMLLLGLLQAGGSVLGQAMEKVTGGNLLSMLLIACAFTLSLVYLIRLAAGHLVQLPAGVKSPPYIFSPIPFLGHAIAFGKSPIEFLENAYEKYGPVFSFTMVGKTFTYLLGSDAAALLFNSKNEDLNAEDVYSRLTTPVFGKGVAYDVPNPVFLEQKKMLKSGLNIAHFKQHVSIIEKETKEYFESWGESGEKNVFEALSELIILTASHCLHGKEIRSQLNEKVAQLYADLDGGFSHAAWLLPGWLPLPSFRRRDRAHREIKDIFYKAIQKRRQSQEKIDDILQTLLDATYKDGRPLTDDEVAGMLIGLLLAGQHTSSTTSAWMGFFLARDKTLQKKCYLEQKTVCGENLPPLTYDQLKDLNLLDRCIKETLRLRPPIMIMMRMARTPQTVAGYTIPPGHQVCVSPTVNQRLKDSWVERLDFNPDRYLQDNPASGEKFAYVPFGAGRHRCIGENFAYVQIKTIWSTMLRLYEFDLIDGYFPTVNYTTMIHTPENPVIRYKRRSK
Experimental: as §1, §2, §3, §4, §5

[8] = molecular target: T8, PHYHD1 PhytanoylCoA dioxygenase (Q5SRE7) (Homo sapiens, UniProt Q5SRE7); conditions: SILAC H/L, MDA-MB-231
T8 construct: In Situ Labelling of Cells with Hydrazine Probes for MS Experiments; endogenous in cells; host or cells: HEK293T and/or MDA-MB-231
T8 sequence (Q5SRE7 whole entry): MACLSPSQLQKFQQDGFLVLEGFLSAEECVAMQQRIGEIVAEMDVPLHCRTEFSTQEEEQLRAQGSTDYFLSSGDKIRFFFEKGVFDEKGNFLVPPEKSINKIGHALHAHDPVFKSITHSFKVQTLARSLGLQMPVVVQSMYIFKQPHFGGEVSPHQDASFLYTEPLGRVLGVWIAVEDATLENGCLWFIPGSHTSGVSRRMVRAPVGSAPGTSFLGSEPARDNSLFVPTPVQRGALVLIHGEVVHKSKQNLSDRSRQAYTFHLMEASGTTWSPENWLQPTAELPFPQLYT
Experimental: as §1, §2, §3, §4, §5

[9] = molecular target: T9, SCD AcylCoA desaturase (O00767) (Homo sapiens, UniProt O00767); conditions: SILAC H/L, HEK293T
T9 construct: In Situ Labelling of Cells with Hydrazine Probes for MS Experiments; endogenous in cells
T9 sequence (O00767 whole entry): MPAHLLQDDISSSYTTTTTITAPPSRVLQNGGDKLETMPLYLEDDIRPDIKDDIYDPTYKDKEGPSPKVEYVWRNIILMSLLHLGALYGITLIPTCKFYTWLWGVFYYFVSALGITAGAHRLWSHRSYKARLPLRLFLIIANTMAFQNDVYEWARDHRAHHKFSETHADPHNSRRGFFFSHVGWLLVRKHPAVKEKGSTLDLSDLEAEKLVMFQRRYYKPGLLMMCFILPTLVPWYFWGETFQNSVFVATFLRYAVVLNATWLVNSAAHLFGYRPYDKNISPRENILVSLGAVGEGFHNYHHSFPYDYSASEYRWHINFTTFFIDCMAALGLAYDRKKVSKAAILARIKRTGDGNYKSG
Experimental: as §1, §2, §3, §4, §5

[10] = molecular target: T10, FADS2 Fatty acid desaturase 2 (O95864) (Homo sapiens, UniProt O95864); conditions: SILAC H/L, HEK293T
T10 construct: In Situ Labelling of Cells with Hydrazine Probes for MS Experiments; endogenous in cells; host or cells: HEK293T and/or MDA-MB-231
T10 sequence (O95864 whole entry): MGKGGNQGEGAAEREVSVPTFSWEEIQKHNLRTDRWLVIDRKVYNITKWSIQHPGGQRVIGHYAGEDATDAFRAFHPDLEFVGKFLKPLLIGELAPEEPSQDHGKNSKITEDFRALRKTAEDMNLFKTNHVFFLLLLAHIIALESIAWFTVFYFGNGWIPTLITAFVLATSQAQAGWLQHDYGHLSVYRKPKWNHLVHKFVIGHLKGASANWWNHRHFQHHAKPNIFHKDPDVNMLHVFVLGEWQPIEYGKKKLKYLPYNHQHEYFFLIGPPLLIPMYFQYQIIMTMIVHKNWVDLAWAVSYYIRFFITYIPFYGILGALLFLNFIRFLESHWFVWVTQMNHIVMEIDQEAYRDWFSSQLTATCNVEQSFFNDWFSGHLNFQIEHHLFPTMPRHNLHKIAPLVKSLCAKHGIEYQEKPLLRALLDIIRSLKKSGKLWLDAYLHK
Experimental: as §1, §2, §3, §4, §5

[11] = molecular target: T11, CYP27A1 Sterol 26hydroxylase, mitochondrial (Q02318) (Homo sapiens, UniProt Q02318); conditions: SILAC H/L, MDA-MB-231
T11 construct: endogenous in cells; host or cells: HEK293T or MDA-MB-231
T11 sequence (Q02318 34-531): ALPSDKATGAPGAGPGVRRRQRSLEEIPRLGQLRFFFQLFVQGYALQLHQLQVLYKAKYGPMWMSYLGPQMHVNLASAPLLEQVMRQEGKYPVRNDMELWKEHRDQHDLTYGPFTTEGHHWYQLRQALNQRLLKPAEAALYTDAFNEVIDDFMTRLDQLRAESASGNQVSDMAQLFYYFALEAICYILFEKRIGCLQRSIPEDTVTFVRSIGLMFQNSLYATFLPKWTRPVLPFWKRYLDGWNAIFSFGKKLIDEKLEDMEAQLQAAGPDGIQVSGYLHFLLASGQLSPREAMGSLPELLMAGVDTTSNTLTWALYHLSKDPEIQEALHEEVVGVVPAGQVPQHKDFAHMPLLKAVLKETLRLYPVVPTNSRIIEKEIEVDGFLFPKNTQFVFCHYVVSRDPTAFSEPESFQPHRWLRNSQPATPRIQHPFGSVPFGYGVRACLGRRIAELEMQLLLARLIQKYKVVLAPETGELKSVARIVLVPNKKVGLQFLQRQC
Experimental: as §1, §2, §3, §4, §5

[12] = molecular target: T12, RAB14 Rasrelated protein Rab14 (P61106) (Homo sapiens, UniProt P61106); conditions: SILAC H/L, MDA-MB-231
T12 construct: endogenous in cells; host or cells: HEK293T or MDA-MB-231
T12 sequence (P61106 whole entry): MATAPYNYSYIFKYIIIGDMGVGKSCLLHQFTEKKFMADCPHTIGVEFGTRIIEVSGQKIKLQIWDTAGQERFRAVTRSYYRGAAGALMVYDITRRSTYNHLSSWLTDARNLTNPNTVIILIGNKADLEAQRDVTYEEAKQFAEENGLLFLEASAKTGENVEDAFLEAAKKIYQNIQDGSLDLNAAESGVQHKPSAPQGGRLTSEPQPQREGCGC
Experimental: as §1, §2, §3, §4, §5

[13] = molecular target: T13, PYROXD2 Pyridine nucleotidedisulfide (Q8N2H3) (Homo sapiens, UniProt Q8N2H3); conditions: SILAC H/L, MDA-MB-231
T13 construct: In Situ Labelling of Cells with Hydrazine Probes for MS Experiments; endogenous in cells; host or cells: HEK293T and/or MDA-MB-231
T13 sequence (Q8N2H3 whole entry): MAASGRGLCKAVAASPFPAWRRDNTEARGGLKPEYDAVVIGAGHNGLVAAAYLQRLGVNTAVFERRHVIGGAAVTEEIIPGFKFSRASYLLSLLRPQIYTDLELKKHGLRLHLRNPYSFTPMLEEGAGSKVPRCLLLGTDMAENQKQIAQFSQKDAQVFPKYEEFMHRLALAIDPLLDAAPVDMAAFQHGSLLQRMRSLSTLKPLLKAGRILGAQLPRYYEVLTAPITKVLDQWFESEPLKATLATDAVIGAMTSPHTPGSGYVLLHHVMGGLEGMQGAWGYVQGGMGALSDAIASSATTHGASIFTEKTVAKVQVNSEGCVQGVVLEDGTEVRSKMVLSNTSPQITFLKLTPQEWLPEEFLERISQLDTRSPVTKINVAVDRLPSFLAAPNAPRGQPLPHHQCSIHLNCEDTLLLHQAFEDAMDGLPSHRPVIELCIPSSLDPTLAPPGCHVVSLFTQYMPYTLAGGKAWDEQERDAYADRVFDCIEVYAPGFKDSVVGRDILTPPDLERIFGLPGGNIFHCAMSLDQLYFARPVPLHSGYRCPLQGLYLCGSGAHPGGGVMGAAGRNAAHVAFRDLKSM
Experimental: as §1, §2, §3, §4, §5

[14] = molecular target: T14, TTC38 Tetratricopeptide repeat protein 38 (Q5R3I4) (Homo sapiens, UniProt Q5R3I4); conditions: SILAC H/L, HEK293T
T14 construct: In Situ Labelling of Cells with Hydrazine Probes for MS Experiments; endogenous in cells; host or cells: HEK293T and/or MDA-MB-231
T14 sequence (Q5R3I4 whole entry): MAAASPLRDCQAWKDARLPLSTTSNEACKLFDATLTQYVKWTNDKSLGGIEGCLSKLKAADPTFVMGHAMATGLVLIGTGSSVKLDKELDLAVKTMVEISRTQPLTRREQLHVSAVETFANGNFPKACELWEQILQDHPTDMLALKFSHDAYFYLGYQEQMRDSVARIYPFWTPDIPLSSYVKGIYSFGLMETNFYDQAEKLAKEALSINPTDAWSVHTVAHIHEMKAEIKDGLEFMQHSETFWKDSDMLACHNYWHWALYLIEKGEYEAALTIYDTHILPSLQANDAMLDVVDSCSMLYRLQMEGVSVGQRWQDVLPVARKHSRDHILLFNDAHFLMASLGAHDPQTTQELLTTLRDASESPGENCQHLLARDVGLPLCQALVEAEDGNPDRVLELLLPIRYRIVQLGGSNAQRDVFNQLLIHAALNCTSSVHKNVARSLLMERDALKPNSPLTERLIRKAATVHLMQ
Experimental: as §1, §2, §3, §4, §5

T1 sequence (P30519 whole entry): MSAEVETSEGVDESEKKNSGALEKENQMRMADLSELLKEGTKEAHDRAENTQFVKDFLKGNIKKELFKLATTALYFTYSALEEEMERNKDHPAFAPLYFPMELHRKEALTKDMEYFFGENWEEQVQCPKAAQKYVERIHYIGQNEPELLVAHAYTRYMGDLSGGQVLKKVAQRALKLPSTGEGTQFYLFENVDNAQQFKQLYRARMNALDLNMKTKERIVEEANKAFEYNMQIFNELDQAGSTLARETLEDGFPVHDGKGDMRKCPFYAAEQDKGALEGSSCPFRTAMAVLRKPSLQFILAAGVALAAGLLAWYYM

enrichment ratioavg ([1]; probe 2 1 mM 0.5 h vs probe 4): 20
competition ratioavg ([1]; probe 2 vs probe 2+10x probe 4): 5
enrichment ratioavg ([2]; probe 2 1 mM 0.5 h vs probe 4): 15
competition ratioavg ([2]; probe 2 vs probe 2+10x probe 4): 4
enrichment ratioavg ([3]; probe 2 1 mM 0.5 h vs probe 4): 20
competition ratioavg ([3]; probe 2 vs probe 2+10x probe 4): 4
enrichment ratioavg ([4]; probe 2 1 mM 0.5 h vs probe 4): 8
competition ratioavg ([4]; probe 2 vs probe 2+10x probe 4): 4
enrichment ratioavg ([5]; probe 2 1 mM 0.5 h vs probe 4): 8
competition ratioavg ([5]; probe 2 vs probe 2+10x probe 4): 2
enrichment ratioavg ([6]; probe 2 1 mM 0.5 h vs probe 4): 20
competition ratioavg ([6]; probe 2 vs probe 2+10x probe 4): 2
enrichment ratioavg ([7]; probe 2 1 mM 0.5 h vs probe 4): 14
competition ratioavg ([7]; probe 2 vs probe 2+10x probe 4): 6
enrichment ratioavg ([8]; probe 2 1 mM 0.5 h vs probe 4): 14
competition ratioavg ([8]; probe 2 vs probe 2+10x probe 4): 5
enrichment ratioavg ([9]; probe 2 1 mM 0.5 h vs probe 4): 20
competition ratioavg ([9]; probe 2 vs probe 2+10x probe 4): 9
enrichment ratioavg ([10]; probe 2 1 mM 0.5 h vs probe 4): 20
competition ratioavg ([10]; probe 2 vs probe 2+10x probe 4): 4
enrichment ratioavg ([11]; probe 2 1 mM 0.5 h vs probe 4): 20
competition ratioavg ([11]; probe 2 vs probe 2+10x probe 4): 3
enrichment ratioavg ([12]; probe 2 1 mM 0.5 h vs probe 4): 5
competition ratioavg ([12]; probe 2 vs probe 2+10x probe 4): 3
enrichment ratioavg ([13]; probe 2 1 mM 0.5 h vs probe 4): 20
competition ratioavg ([13]; probe 2 vs probe 2+10x probe 4): 20
enrichment ratioavg ([14]; probe 2 1 mM 0.5 h vs probe 4): 14
competition ratioavg ([14]; probe 2 vs probe 2+10x probe 4): 2
Structure (SMILES): C#CCCNC(=O)c1ccc(NN)cc1.Cl [probe 2, N-(but-3-yn-1-yl)-4-hydrazinylbenzamide hydrochloride]

From patent US11226337B2, “Chemoproteomic profiling of protein electrophilic and oxidative post-translational modifications” (Zenagem, LLC, priority 2017, dated 2022)
